Laboratory results reported in patent US7858394B2, “Test methods for determining the intracellular concentration of cyclic nucleotides” (Axxam SpA, priority 2003, dated 2010).

Experiments:
[1] = system: soluble guanylate cyclase; experiment: Luminescence measurement of intracellular cGMP in a cell line expressing the CNG2 channel, a calcium-sensitive photoprotein and soluble guanylate cyclase; format: cell-based; settings: dose-dependent; RLUs measured for 1 min; FIG. 2
Experimental: (§1) The cells are seeded for the measurements on 384-well microtitre plates (MTPs) at 1500 cells per well and on 1536-well MTPs at 250 cells per well. After 1-2 days of growth at 37° C./5% CO2, the cell culture medium (DMEM/F12 containing 10% foetal calf serum) is removed and the cells are charged with coelenterazine (0.8 μg/ml) in calcium-free Tyrode's at 37° C./5% CO2 for 3 h. Subsequently, test substances and appropriate control substances (e.g. SIN-1 or isoprenaline) are added in calcium-free Tyrode's and incubated on the cells for 5-10 min. The extra measurement is then carried out in a light-tight box by adding calcium-containing Tyrode's via a comb (final calcium concentration: 3 mM), with the aid of a charge-coupled device camera.

Experimental for β-adrenergic receptor: as §1
To measure the effects of substances directly, the cells are charged with coelenterazine in calcium-containing Tyrode's. The substances are then added within the light-tight box and measurement commences immediately with addition of the substances (FIG. 5).
If the cells are charged with coelenterazine in calcium-containing Tyrode's, the agonist isoprenaline may also be added directly to the cells within the light-tight box.

SMILES	luminescence signal (intracellular cGMP concentration) after activation of soluble guanylate cyclase [1]	time until luminescence signal is observed after addition of agonist (β-adrenergic receptor; cells charged with coelenterazine in calcium-containing Tyrode's, agonist 10^-6 M added directly within the light-tight box, FIG. 5)	luminescence signal (intracellular cAMP concentration) after activation of the β-adrenergic receptor (β-adrenergic receptor; dose-dependent, 10 min incubation in calcium-free Tyrode's, measurement started by adding calcium, 0, 10^-7 M, 10^-6 M, FIG. 4)
[NH-]c1c[n+](N2CCOCC2)no1 [SIN-1]	enhanced luminescence signal		
CC(C)NCC(O)c1ccc(O)c(O)c1 (stereo not drawn) [isoprenaline]		within a few seconds	enhanced lumiscence signal
